{"source": "ChEMBL document CHEMBL1142197", "about": "“The relationship between quinolone exposures and resistance amplification is characterized by an inverted U: a new paradigm for optimizing pharmacodynamics to counterselect resistance” (2007)", "assay_type_in_all_cases": "functional", "key": {"[1]": {"system": "Staphylococcus aureus", "assay": "Antibacterial activity against ciprofloxacin-resistant methicillin-resistant Staphylococcus aureus at 48 hrs by broth macrodilution method"}, "[2]": {"system": "Staphylococcus aureus", "assay": "Antibacterial activity against ciprofloxacin-susceptible methicillin-resistant Staphylococcus aureus at 48 hrs by broth macrodilution method"}, "[3]": {"system": "Staphylococcus aureus", "assay": "Antibacterial activity against ciprofloxacin-susceptible methicillin-resistant Staphylococcus aureus by broth macrodilution method"}, "[4]": {"system": "Staphylococcus aureus", "assay": "Antibacterial activity against ciprofloxacin-resistant methicillin-resistant Staphylococcus aureus by broth macrodilution method"}, "[5]": {"system": "Klebsiella pneumoniae", "assay": "Antibacterial activity against Klebsiella pneumoniae ATCC 13883 by broth macrodilution method"}, "[6]": {"system": "Klebsiella pneumoniae", "assay": "Antibacterial activity against Klebsiella pneumoniae ATCC 13883 by broth macrodilution method at 48 hrs", "settings": "ATCC 13883, 48 h"}}, "data": [{"compound": "C[C@H]1NCc2cc(-c3ccc4c(=O)c(C(=O)O)cn(C5CC5)c4c3OC(F)F)ccc21", "note": "[GARENOXACIN]", "values": [{"measurement": "MIC", "setting": "[1]", "value": 2.56, "unit": "µg/mL"}, {"measurement": "MIC", "setting": "[2]", "value": 0.08, "unit": "µg/mL"}, {"measurement": "MBC", "setting": "[3]", "value": 0.32, "unit": "µg/mL"}, {"measurement": "MIC", "setting": "[3]", "value": 0.04, "unit": "µg/mL"}, {"measurement": "MBC", "setting": "[4]", "value": 0.32, "unit": "µg/mL"}, {"measurement": "MIC", "setting": "[4]", "value": 0.16, "unit": "µg/mL"}, {"measurement": "MBC", "setting": "[5]", "value": 0.32, "unit": "µg/mL"}, {"measurement": "MIC", "setting": "[5]", "value": 0.16, "unit": "µg/mL"}, {"measurement": "MIC", "setting": "[6]", "value": 0.64, "unit": "µg/mL"}]}]}
